Source: patent US7914780B1, “Aminopeptidase A (APA) targeting peptides for the treatment of cancer” (Board of Regents, the University of Texas System, priority 2000, dated 2011)
Peptide text beside a SMILES is read from it.

What was measured:
[1] = biological target: T1, APA-transfected SK-RC-49 cells (Homo sapiens, UniProt Q07075); assay: Cell surface panning of CX3CX3CX3C phage display library on APA-transfected cells; assay type: binding; conditions: for Round 2 (%) - share of randomly selected phage clones displaying the sequence: after second round of panning on SK-RC-49/APA cells
T1 construct: stably transfected with a mammalian expression vector encoding the full-length APA cDNA; expressed in transfected cells; host or cells: SK-RC-49 renal carcinoma cells (SK-RC-49/APA)
T1 sequence (Q07075 whole entry): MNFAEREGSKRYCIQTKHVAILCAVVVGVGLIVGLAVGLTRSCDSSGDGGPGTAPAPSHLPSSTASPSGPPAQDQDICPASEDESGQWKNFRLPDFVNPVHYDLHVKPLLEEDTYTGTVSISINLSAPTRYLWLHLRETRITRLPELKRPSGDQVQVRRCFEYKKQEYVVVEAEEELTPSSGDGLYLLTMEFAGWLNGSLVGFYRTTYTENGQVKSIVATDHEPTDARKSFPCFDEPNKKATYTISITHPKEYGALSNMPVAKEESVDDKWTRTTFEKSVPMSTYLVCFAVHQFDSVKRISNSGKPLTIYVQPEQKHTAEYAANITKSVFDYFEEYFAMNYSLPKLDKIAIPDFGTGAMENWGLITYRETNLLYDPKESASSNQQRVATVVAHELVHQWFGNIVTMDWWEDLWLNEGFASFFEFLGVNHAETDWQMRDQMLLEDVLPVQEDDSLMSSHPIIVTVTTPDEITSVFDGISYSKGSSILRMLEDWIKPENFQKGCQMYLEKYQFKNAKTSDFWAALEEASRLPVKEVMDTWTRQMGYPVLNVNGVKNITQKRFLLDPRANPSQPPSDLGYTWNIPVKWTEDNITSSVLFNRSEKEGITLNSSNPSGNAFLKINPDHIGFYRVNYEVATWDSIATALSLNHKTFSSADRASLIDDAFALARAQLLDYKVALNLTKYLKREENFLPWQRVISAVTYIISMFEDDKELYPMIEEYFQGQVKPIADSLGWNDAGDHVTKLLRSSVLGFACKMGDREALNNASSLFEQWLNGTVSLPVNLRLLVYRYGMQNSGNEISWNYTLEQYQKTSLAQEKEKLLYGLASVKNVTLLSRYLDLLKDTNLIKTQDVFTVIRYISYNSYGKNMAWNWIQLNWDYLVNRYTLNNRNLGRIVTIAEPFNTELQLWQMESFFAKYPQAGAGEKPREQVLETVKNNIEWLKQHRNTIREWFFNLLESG
Description: Briefly, 10^10 transducing units (TU) of a CX3CX3CX3C (SEQ ID NO:14; C, cysteine; X, any amino acid residue) phage display random library are pre-absorbed on SK-RC-49 parental cells. The pre-cleared CX3CX3CX3C phage library (˜10^10 TU) is added to 106 detached APA-transfected SK-RC-49 cells in binding medium (20 mM HEPES, 2% FCS in DMEM). Cell panning was performed at 4° C. to minimize post-binding events such as receptor-mediated internalization (Giordano et al., 2001). Cells were washed with binding medium and cell bound phage were recovered and amplified by infection of K91Kan E. coli. Serial dilutions were plated on Luria-Bertani (LB) agar plates with tetracycline and kanamycin. The number of TU was determined by bacterial colony counting.
The inventors pre adsorbed 1010 transducing units (TU) of a CX3CX3CX3C (C, cysteine; X, any amino acid residue; SEQ ID NO:14) phage display random library on SK-RC-49 parental cells. Next, the pre-cleared CX3CX3CX3C (SEQ ID NO:14) phage library (˜1010 TU) was added to 106 detached APA-transfected SK-RC-49 cells in binding medium (20 mM HEPES, 2% FCS in DMEM). Cell panning was performed at 4° C. to minimize post-binding events such as receptor-mediated internalization (Giordano et al., 2001). Cells were washed with binding medium and cell bound phage were recovered and amplified by infection of K91 Kan E. coli. Serial dilutions were plated on Luria-Bertani (LB) agar plates with tetracycline and kanamycin. The number of TU was determined by bacterial colony counting.
To identify peptides capable of binding to APA, the inventors screened APA-transfected cells with a phage display library (Smith and Scott, 1993). The inventors stably transfected SK-RC-49 renal carcinoma cells with a vector expressing full-length APA cDNA. APA functionality was verified in transfected cells by an enzyme activity assay specific for APA.

SK-RC-49/APA cells = biological target: T2, SK-RC-49/APA cells (Homo sapiens, UniProt Q07075); assay: Phage binding assay on SK-RC-49/APA cells versus SK-RC-49 cells; conditions: for Phage binding to SK-RC-49/APA cells relative to SK-RC-49 cells: individual phage clones
T2 construct: stably transfected with a mammalian expression vector encoding the full-length APA cDNA; expressed in transfected cells; host or cells: SK-RC-49 renal carcinoma cells (SK-RC-49/APA)
T2 sequence (Q07075 whole entry): as above
Description: Binding assays were performed on cells with 109 TU phage input. Increasing concentrations of synthetic […] (SEQ ID NO:2) or control peptides were used to evaluate competitive inhibition of phage binding. APA was immunocaptured on microtiter wells with RC38 and incubated with 109 TU of phage in 3% BSA in PBS. Wells were washed with 1% BSA, 0.01% Tween-20 in PBS and phage were recovered by infection of K91kan E. coli. Serial dilutions were plated on LB agar plates containing tetracycline and kanamycin. The number of TU was determined by bacterial colony counting.
Phage displaying enriched peptide motifs were tested individually for APA binding. Phage displaying the inserts […] (SEQ ID NO:3), […] (SEQ ID NO:1) or […] The inventors synthesized peptides containing APA-binding motifs (consensus sequence […] (SEQ ID NO:2); Table 1). Binding of phage displaying […] Binding of […] Whether the selected peptides would bind to the isolated APA protein was also evaluated. […] The inventors used phage displaying […] (SEQ ID NO:3), […] (SEQ ID NO:4), or […] (SEQ ID NO:1) in binding assays to the immunocaptured APA.

HMECs [2] = assay: Chemotaxic (Boyden chamber) cell migration assay; assay type: cell-based, human
Description: Cell migration assays were performed in a 48-well Boyden chamber (NeuroProbe; Gaithersburg, Md.) as described (Bussolino et al., 1995). Indicated concentrations of […] (SEQ ID NO:2) peptide or negative control peptide (1 mM) were placed in the lower chamber compartment in complete M199 medium. Subconfluent HMECs were harvested and 1×10^5 cells were seeded in the upper chamber compartment in complete M199 medium. Cells were allowed to migrate for 5 h at 37° C. in a humidified 5% CO2 atmosphere. Filter was removed and cells on the upper side were scraped off. Migrated cells were fixed and Giemsa-stained.
(§1) Because of the enzymatic inhibitory activity of APA-binding peptides, the inventors reasoned that they might affect endothelial cell function. The inventors correlated the effect of APA inhibition by the […] (SEQ ID NO:2) peptide on the migration and proliferation of endothelial cells. The inventors used human dermal microvascular endothelial cells (HMEC) in which the APA expression was verified by immunostaining with RC38 and the APA activity by its specific enzyme assay. […] (SEQ ID NO:2) peptide suppressed the migration of HMECs in the Boyden chamber assay (FIG. 3B). Suppression in cell migration was dose-dependent and commensurate with inhibition of APA enzymatic activity. […] Similarly, proliferation of HMECs was suppressed by […] (SEQ ID NO:2) (˜40% at 1 mM) in a dose-dependent manner (FIG. 3C).

HMECs [3] = assay: Endothelial cell growth assay (crystal violet); assay type: cell-based, human
Description: HMECs were seeded (˜10,000 cells/well) and allowed to attach for 24 hours in complete M199 medium (Sigma; St. Louis, Mo.). The indicated concentrations of […] (SEQ ID NO:2) or 1 mM negative control peptide were added to the cells in complete M199 medium. HMECs were then serially fixed in 2.5% glutaraldehyde, stained with 0.1% crystal violet in 20% methanol, and solubilized in 10% acetic acid. Cell growth was evaluated by measuring absorbance at 590 nm. A calibration curve with linear correlation between absorbance and cell number (103-105 HMECs) was used for the assay.
as §1

[4] = test system: VEGF-induced CAM neovascularization; assay: Chick embryo chorioallantoic membrane (CAM) assay; assay type: in vivo, chicken
Description: Fertilized chicken eggs were incubated in constant humidity at 37° C. for 3 days. Two to three ml of albumin was removed through a square opening to detach the developing CAM. The opening was sealed with a glass plate and the eggs were incubated for 5 days. […] […] CAMs were examined daily until day 12, photographed in ovo with a stereomicroscope and emerging capillaries were counted (Ribatti et al., 1997).
In this in vivo model, neovascularization is stimulated with VEGF adsorbed on to a gelatin sponge placed on the CAM. […] CAMs were examined on E12 and neovascularization was quantified by counting the number of emerging capillaries (FIG. 4B). Significant induction of neovascularization (57.0±1.41 blood vessels) was found when a sponge with VEGF was placed on the CAM compared to a sponge with no growth factors (12.0±2.8 blood vessels; t-test, P<0.01). […]

[5] = test system: MDA-MB-435 human breast carcinoma-derived tumor xenografts; assay: Tumor homing of phage in vivo; parameters: species or system nude mice; conditions: intravenous
Description: Nude mice bearing tumor xenografts derived from MDA-MB-435 human breast cancer cells were generated as described (Arap et al., 1998). 109 TU of […] (SEQ ID NO:8)-displaying phage or fd-tet phage were injected intravenously to anesthetized mice. Phage were allowed to circulate for 5 minutes and the animals were perfused through the left ventricle of the heart with DMEM. The tumor and control organs were dissected and equal amounts of tissue were homogenized. Homogenates were washed with ice-cold DMEM containing a protease inhibitor cocktail (Sigma; St. Louis, Mo.) and 0.1% BSA. Tissue-bound phage were recovered as described above the cell panning. Tissue samples from the injected animals were fixed, sectioned at 5 μm and stained with an anti-M13 antibody.
The inventors next evaluated the ability of APA binding peptides to home to tumor blood vessels in vivo. Phage were administered intravenously to nude mice bearing human breast carcinoma MDA-MB-435-derived xenografts. Phage homing was quantified by recovery from tissue homogenates by bacterial infection. […] […] Homing of […] (SEQ ID NO:3) phage to tumor vasculature was confirmed by immunohistochemical staining of phage on tissue sections.

aminopeptidase N = aminopeptidase N (Homo sapiens, UniProt P15144); assay: Aminopeptidase N enzymatic activity; assay type: biochemical
aminopeptidase N, sequence (P15144 whole entry, species assumed): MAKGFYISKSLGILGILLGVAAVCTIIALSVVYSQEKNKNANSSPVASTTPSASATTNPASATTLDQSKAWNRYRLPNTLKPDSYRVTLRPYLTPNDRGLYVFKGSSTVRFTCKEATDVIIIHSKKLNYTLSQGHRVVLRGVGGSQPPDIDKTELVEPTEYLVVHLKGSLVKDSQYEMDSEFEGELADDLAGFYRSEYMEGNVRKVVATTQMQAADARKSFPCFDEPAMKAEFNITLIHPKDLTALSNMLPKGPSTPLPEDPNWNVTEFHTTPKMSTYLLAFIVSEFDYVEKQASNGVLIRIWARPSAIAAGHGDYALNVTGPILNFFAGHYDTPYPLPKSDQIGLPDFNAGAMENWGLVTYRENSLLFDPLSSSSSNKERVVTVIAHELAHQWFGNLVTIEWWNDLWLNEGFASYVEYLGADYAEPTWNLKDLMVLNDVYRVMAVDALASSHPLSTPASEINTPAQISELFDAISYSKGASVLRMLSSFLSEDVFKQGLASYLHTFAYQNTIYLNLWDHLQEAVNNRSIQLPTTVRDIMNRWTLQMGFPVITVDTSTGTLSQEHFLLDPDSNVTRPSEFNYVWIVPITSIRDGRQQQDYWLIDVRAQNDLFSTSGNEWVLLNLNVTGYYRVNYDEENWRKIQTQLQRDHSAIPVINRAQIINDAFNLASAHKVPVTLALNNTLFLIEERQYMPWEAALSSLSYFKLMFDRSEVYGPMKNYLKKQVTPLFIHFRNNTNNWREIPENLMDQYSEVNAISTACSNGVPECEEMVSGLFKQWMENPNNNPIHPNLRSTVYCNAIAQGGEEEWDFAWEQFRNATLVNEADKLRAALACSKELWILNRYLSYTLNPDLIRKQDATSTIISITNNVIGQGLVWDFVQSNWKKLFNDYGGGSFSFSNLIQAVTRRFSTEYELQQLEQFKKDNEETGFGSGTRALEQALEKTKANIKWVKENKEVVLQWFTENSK

HMECs [6] = assay: Three-dimensional cell culture on Matrigel (cord/tube formation); assay type: cell-based, human
Description: Matrigel (BD Biosciences; Bedford, Mass.) was added to 48-well tissue culture plates and allowed to solidify at 37° C. HMECs (˜10^4 cells) were added to the wells and allowed to adhere to the Matrigel for 30 minutes at 37° C. Cell medium was replaced containing the indicated concentrations of […] (SEQ ID NO:2) or a negative control peptide (both at 1 mM) in complete medium. Plates were examined and photographed after 16 hours.
To determine whether inhibition of APA enzyme activity with […] (SEQ ID NO:2) peptide would affect angiogenesis, the effect of the peptide was tested in vitro and in vivo. First, the inventors evaluated the ability of HMECs to differentiate into capillary-like structures characteristic of angiogenesis in the presence of […] (SEQ ID NO:2) on a gel of reconstituted basement membrane matrix (Matrigel). The formation of cord/tube-like structures was progressively impaired by increasing concentrations of […] (SEQ ID NO:2) peptide, relative to the network formation in controls without peptide (FIG. 4A, upper left panel) or with an unrelated control peptide at 1 mM concentration (FIG. 4A, upper right panel). The number and length of capillary-like branching structures was reduced at 0.3 mM […] […]

EF43-fgf4-derived tumors = assay: Experimental therapy of EF43-fgf4-derived tumors; assay type: in vivo, Balb/c mice
Description: For experimental therapy, Balb/c mice bearing EF43-fgf4-derived tumors were established and tumor volumes determined as described (Deroanne et al., 1997; Hajitou et al., 2001). Treatments in tumor-bearing mice were started 5 (peptides) to 7 days (antibodies) after cell inoculation (10^5 cells/mouse). Reagents were administered by ip and sc routes.
Tumor-bearing mice received vehicle, [sequence] (SEQ ID NO:2) or control peptides and tumors were monitored (FIG. 7B).
The inventors used an established regimen of two anti-APA monoclonal antibodies (ASD-37/41) with synergistic APA inhibitory properties (Assmann et al., 1992, Mentzel et al., 1999) on the same animal model. Tumor-bearing mice received vehicle, ASD-37/41, or isotype control IgG and tumors were monitored (FIG. 7C).

[7] = competition with synthetic peptide
[8] = negative control peptide (1 mM)
[9] = 1 mM peptide in VEGF-adsorbed sponge, E12

In the case of CGTGCAVECEVVC, the “Round 2 (%) - share of randomly selected phage clones displaying the sequence” value [1] is reported as 5%.
With CSGLCTVQCLEGC (phage-displayed) the “Round 2 (%) - share of randomly selected phage clones displaying the sequence” value [1] was 5%.
For “CYNLCIRECESICGADGACWTWCADGCSRSC (phage-displayed)”, the “Round 2 (%) - share of randomly selected phage clones displaying the sequence” value [1] was 50%, the “Round 3 (%) - share of randomly selected phage clones displaying the sequence” value ([1]; after third round of panning on SK-RC-49/APA cells) was 100% and the “Effect of synthetic CPRECESIC peptide on phage binding to SK-RC-49/APA cells” value (SK-RC-49/APA cells; [7]) was “inhibited by the synthetic peptide”. The “Phage binding to SK-RC-49/APA cells relative to SK-RC-49 cells” value (SK-RC-49/APA cells) was “preferentially bound to SK-RC-49/APA cells”.
With “GACVRLSACGA [negative control peptide, unrelated synthetic peptide used as a negative control unless otherwise indicated, reference compound]” the “Effect on cell migration” value (HMECs [2]; [8]) was “affected neither cell migration nor proliferation”, the “Effect on cell proliferation” value (HMECs [3]; [8]) was “affected neither cell migration nor proliferation” and the “Number of emerging capillaries” value [4, 9] was 56.5±2.12 blood vessels.
With CAVACWADCQLGC the “Round 2 (%) - share of randomly selected phage clones displaying the sequence” value [1] was 5%.
For CLGQCASICVNDC, the “Round 2 (%) - share of randomly selected phage clones displaying the sequence” value [1] was 5%, the “Effect of synthetic […] peptide on phage binding to SK-RC-49/APA cells” value (SK-RC-49/APA cells; [7]) was “not affected by the synthetic peptide” and the “Phage binding to SK-RC-49/APA cells relative to SK-RC-49 cells” value (SK-RC-49/APA cells) was “preferentially bound to SK-RC-49/APA cells”.
In the case of CSMMCLEGCDDWC (phage-displayed), the “Round 2 (%) - share of randomly selected phage clones displaying the sequence” value [1] is reported as 5%.
CPKVCPRECESNC (phage-displayed) was tested, and the “Round 2 (%) - share of randomly selected phage clones displaying the sequence” value [1] was 5%, the “Effect of synthetic […] peptide on phage binding to SK-RC-49/APA cells” value (SK-RC-49/APA cells; [7]) was “inhibited by the synthetic peptide” and the “Phage binding to SK-RC-49/APA cells relative to SK-RC-49 cells” value (SK-RC-49/APA cells) was “preferentially bound to SK-RC-49/APA cells”. For the same compound, the “Phage homing by recovery from tissue homogenates” value ([5]; tumor versus control organs (brain)) was “enriched in tumors compared to control organs” and the “Phage homing by immunohistochemical staining of tissue sections” value ([5]; tumor versus normal brain blood vessels) was “Strong phage staining was observed in tumor blood vessels”.
`CC[C@H](C)[C@H](NC(=O)[C@H](CO)NC(=O)[C@H](CCC(=O)O)NC(=O)[C@H](CS)NC(=O)[C@H](CCC(=O)O)NC(=O)[C@H](CCCNC(=N)N)NC(=O)[C@@H]1CCCN1C(=O)[C@@H](N)CS)C(=O)N[C@@H](CS)C(=O)O` (H-CPRECESIC-OH) was tested, and the “Effect on enzymatic activity of aminopeptidase N” value (aminopeptidase N) was “did not affect”, the “Inhibition of cell migration” value (HMECs [2]; 100 μM peptide) was “significant inhibition” and the “Suppression in cell migration” value (HMECs [2]; 1 mM peptide, 5 h) was “Up to 60%”. For the same compound, the “Inhibition of cell proliferation” value (HMECs [3]; 0.3 mM peptide) was “Inhibition of cell proliferation was also observed”, the “Suppression of proliferation of HMECs” value (HMECs [3]; 1 mM peptide) was roughly 40% and the “Effect on cell proliferation” value (HMECs [3]; peptide concentrations lower than 0.3 mM) was “no significant effect”. For the same compound, the “Number and length of capillary-like branching structures” value (HMECs [6]; 0.3 mM peptide) was “reduced”, the “Cell interconnections and capillary network organization” value (HMECs [6]; 1 mM peptide) was “severely lost” and the “Effect on number or branching of the growing blood vessels” value ([4]; 0.1 mM and 0.3 mM peptide) was “did not affect”. For the same compound, the “Inhibition of VEGF-induced CAM neovascularization” value [4, 9] was 40%, the “Number of emerging capillaries” value [4, 9] was 35.5±1.4 blood vessels and the Tumor volume (EF43-fgf4-derived tumors; peptides 250 μg/mouse/dose, end of two weeks) was 1,366±190 mm^3.
With CPRECESN the Efficacy in vivo (EF43-fgf4-derived tumors; mouse, in vivo) was “showed efficacy in vivo”.
